Molecules are shown by their SMILES. In brackets after ≈: the same amount, converted by molar mass.

The subject of series [1] is Plasmodium falciparum. Description: Antiplasmodial activity against asexual blood-stage Plasmodium falciparum Tm90-C2B using 2% haematocrit and 0.2% parasitemia assessed as reduction in fluorescence measured after 72 hrs by Malaria SYBR Green I-based Fluorescence (MSF) assay. The format is functional, organism-based.
Series [2] relates to HepG2. Description: Cytotoxicity against human HepG2 cells assessed as cell viability measured after 48 hrs by MTT assay. The format is toxicity, cell-based. Particulars: hepg2. (In general: Tetrazolium assays rely on reduction of a dye to a coloured formazan, in cell work by metabolically active cells.)
A short description of series [3]: Metabolic stability in human liver microsomes assessed as half life measured up to 60 mins by LC/MS analysis. The format is ADME, Microsome. For orientation: Liver microsomes are a subcellular fraction often used to study metabolism.
Series [4] in a line: Metabolic stability in mouse liver microsomes assessed as half life measured up to 60 mins by LC/MS analysis. The format is ADME, Microsome.
Series [5] relates to Plasmodium yoelii. Nature of the series: Antimalarial activity against erythrocytic Plasmodium yoelii MRA-428 infected in CF1 mouse assessed as reduction in parasitemia at 10 mg/kg, po once daily for 4 days measured on day 5. Particulars: time 4 day. Details: scale not given: the % may be the effect or the level left. The format is functional.
Series [6] is described as follows: Solubility of the compound in potassium phosphate buffer at pH 7.4 by UV-vis spectroscopy. Particulars: buffer.
The test system of series [7] is MDR1 (human). Nature of the series: Apparent permeability across apical to basolateral side in MDCK transfected with human MDR1 cells incubated for 1 hr by LC-MS analysis. Particulars: dog, MDCK-MDR1.
Series [8] has as its system MDR1 (human). Description: Apparent permeability across basolateral to apical side in MDCK transfected with human MDR1 cells incubated for 1 hr by LC-MS analysis. Conditions: dog, MDCK-MDR1.
The nature of series [9]: in vitro. Particulars: human, liver microsomes.
Series [10] can be described thus: in vitro. Particulars: mouse, liver microsomes.
The subject of series [11] is Plasmodium falciparum. Description: microbe, parasite or virus in culture. Particulars: D6, 72 h.
Description: Antiplasmodial activity against asexual blood-stage Plasmodium falciparum D6 using 2% haematocrit and 0.2% parasitemia assessed as reduction in fluorescence measured after 72 hrs by Malaria SYBR Green I-based Fluorescence (MSF) assay
In series [12] the test system is Plasmodium falciparum. Description: microbe, parasite or virus in culture. Particulars: Dd2, 72 h.
Description: Antiplasmodial activity against asexual blood-stage Plasmodium falciparum Dd2 using 2% haematocrit and 0.2% parasitemia assessed as reduction in fluorescence measured after 72 hrs by Malaria SYBR Green I-based Fluorescence (MSF) assay
Series [13] deals with Plasmodium yoelii. Nature of the series: Antimalarial activity against erythrocytic Plasmodium yoelii MRA-428 infected in CF1 mouse assessed as reduction in parasitemia at 25 mg/kg, po once daily for 4 days measured on day 5. Details: scale not given: the % may be the effect or the level left. Conditions: time 4 day. Type of series: functional.

For orientation: IC50 means the point on the concentration scale where inhibition reaches its midpoint. As a reminder, the half-life is how long it takes for the measured level to halve. One may read the solubility as the concentration that dissolves in the medium under given conditions. In general, Papp A→B refers to how fast a substance crosses the layer from the apical side. As usually defined, the Papp B→A is the apparent permeability from the basolateral to the apical side of a cell layer. The term microsomal CLint denotes the capacity of the preparation to metabolise the compound, expressed as a volume cleared per time. On to `CCC1=C(CC)/C(=C/NC2CCCCCC2)N=C1c1ccc(-c2ccc(OC)cc2)[nH]1`, for which the IC50 in series [1] came out at 16.6 nM; in series [2] it was 3400 nM; in series [11], 19.4 nM; in series [12], 25.4 nM. Besides, the values for the half-life in series [3] and in series [4] were 8.44 min and 14.5 min, respectively. Also, the Activity in [5] was determined as 4.62%. This compound registered a solubility in series [6] of 45.7 µM (≈ 19.1 µg/mL). Also, the Papp A→B at 1 h in [7] is 0.045 ×10⁻⁶ cm/s. The Papp B→A at 1 h in [8] amounted to 0.013 ×10⁻⁶ cm/s. For the same compound, the microsomal CLint at 1 h is 164 µL/min/mg in series [9] and 96.1 µL/min/mg in series [10].
For `CCc1ccc(C2=N/C(=C\NC3CCCCCC3)C(OC)=C2OC)[nH]1`, the IC50 in [1] was determined as 1.41 nM; in series [2], 11000 nM; in series [11], 3.69 nM; in [12] it was 4.97 nM. Also, the half-life in series [3] was above 60 min; in [4], 36.6 min. Also, the Activity in series [5] is listed as 13.5%; in series [13] it was 59.6%. Also, the solubility in series [6] amounted to 56.1 µM (≈ 19.3 µg/mL). For the same compound, the Papp A→B at 1 h in [7] turned out to be 0.059 ×10⁻⁶ cm/s. Besides, the Papp B→A at 1 h in series [8] came to 0.16 ×10⁻⁶ cm/s. Also, the microsomal CLint at 1 h stood at 12.6 µL/min/mg in [9] and 37.9 µL/min/mg in series [10].
In the case of `COC1=C(OC)/C(=C/NC2CCCCC2)N=C1c1ccc[nH]1`, the IC50 in series [1] stood at 83.3 nM; in [2], 41600 nM; in series [11] it was 66.8 nM; in [12] it was 73.5 nM. Moreover, the half-life in series [3] is 14.6 min; in series [4], 18.7 min. The Activity turned out to be 0% in series [5] and 70.8% in [13]. Further, the solubility in series [6] was 478 µM (≈ 144 µg/mL). Besides, the apparent permeability from apical to basolateral (Papp A→B) at 1 h in series [7] came out at 4.3 ×10⁻⁶ cm/s. In addition, the Papp B→A at 1 h in series [8] stood at 4.8 ×10⁻⁶ cm/s. Besides, the microsomal CLint at 1 h in series [9] was determined as 94.9 µL/min/mg; in series [10], 74.1 µL/min/mg.
`CCC1=C(CC)/C(=C/NC2CCCCCCC2)N=C1c1ccc(-c2ccccc2)[nH]1`: the IC50 in series [1] worked out at 65.5 nM; in [2], 8960 nM; in [11], 39 nM; in series [12], 48.2 nM. In addition, the half-life in [3] stood at 32.9 min; in series [4], 52.2 min. Also, in [5], the Activity is 37.4%. Besides, the solubility in [6] stood at 4.62 µM (≈ 1.86 µg/mL). The Papp A→B at 1 h in series [7] was 0.004 ×10⁻⁶ cm/s. For the same compound, the Papp B→A at 1 h in series [8] is 0.002 ×10⁻⁶ cm/s. Also, the microsomal CLint at 1 h in series [9] stood at 42.1 µL/min/mg; in series [10], 26.5 µL/min/mg.
On to `CCC1=C(CC)/C(=C/NC2CCCCC2)N=C1c1ccc(-c2ccc(OC)cc2)[nH]1`, for which the IC50 in series [1] was determined as 18 nM; in series [2] it was 6570 nM; in series [11], 33.8 nM; in series [12], 41.1 nM. Also, the half-life in series [3] and in [4] was above 60 min each time. The Activity in series [5] was 18.5%. In series [6], this compound displayed a solubility below 3.125 µM. Further, the Papp A→B at 1 h in series [7] stood at 0.01 ×10⁻⁶ cm/s. Further, the Papp B→A at 1 h in series [8] stood at 0.003 ×10⁻⁶ cm/s. The intrinsic clearance (microsomal CLint) at 1 h was found to be 4.54 µL/min/mg in [9] and 21.8 µL/min/mg in series [10].
As for `C(/NC1CCCCC1)=C1/N=C(c2ccc[nH]2)C2=C1OCCO2`, the IC50 worked out at 43.9 nM in [1], 9080 nM in series [2], 48.5 nM in series [11] and 53.5 nM in series [12]. Moreover, the half-life in series [3] turned out to be 13.1 min; in [4], 16.1 min. Moreover, the Activity in series [5] was determined as 7.6%; in series [13] it was 26.7%. For the same compound, the solubility in series [6] was found to be 231 µM (≈ 69.2 µg/mL). Besides, in series [7], the Papp A→B at 1 h came out at 0.33 ×10⁻⁶ cm/s. Besides, in series [8], the Papp B→A at 1 h came out at 4.4 ×10⁻⁶ cm/s. Further, the microsomal CLint at 1 h in series [9] is 105 µL/min/mg; in series [10], 86.4 µL/min/mg.
In the case of `CCC1=C(CC)/C(=C/NC2CCCCCCC2)N=C1c1ccc(Br)[nH]1`, the IC50 stood at 75.2 nM in series [1], 9480 nM in series [2], 53.4 nM in series [11] and 124 nM in series [12]. Besides, the half-life in series [3] and in series [4] was above 60 min each time. For the same compound, the Activity stood at 20.4% in series [5] and 42.3% in series [13]. This compound yielded a solubility in series [6] of 6.28 µM (≈ 2.54 µg/mL). Also, the Papp A→B at 1 h in [7] came to 0.006 ×10⁻⁶ cm/s. Further, the Papp B→A at 1 h in series [8] was 0.066 ×10⁻⁶ cm/s. Besides, the microsomal CLint at 1 h stood at 9.19 µL/min/mg in series [9] and 10.4 µL/min/mg in series [10].
As for `CCc1ccc(C2=N/C(=C\NC3CCCCC3)C(OC)=C2OC)[nH]1`, the IC50 in [1] was 3.96 nM; in series [2] it was 11400 nM; in series [11], 10.3 nM; in series [12] it was 15.5 nM. Also, the half-life is above 60 min in [3] and 26.2 min in series [4]. In addition, the Activity in [5] is on record as 12.3%; in series [13], 12.1%. This compound also came in with a solubility in series [6] of 99.6 µM (≈ 32.8 µg/mL). For the same compound, in series [7], the Papp A→B at 1 h worked out at 0.21 ×10⁻⁶ cm/s. The Papp B→A at 1 h in series [8] turned out to be 0.49 ×10⁻⁶ cm/s. Moreover, the values for the intrinsic clearance (microsomal CLint) at 1 h in [9] and in series [10] were 16.8 µL/min/mg and 52.8 µL/min/mg, respectively.
Consider `C(/NC1CCCCCC1)=C1/N=C(c2ccc[nH]2)C2=C1OCCO2`, for which the IC50 in [1] came to 12.6 nM; in series [2], 7680 nM; in series [12], 25.7 nM. In addition, the half-life was determined as 14.9 min in [3] and 19.5 min in series [4]. Besides, the Activity was determined as 0% in series [5] and 31.2% in series [13]. For the same compound, in series [6], the solubility turned out to be 183 µM (≈ 57.4 µg/mL). In addition, the Papp A→B at 1 h in series [7] amounted to 1.7 ×10⁻⁶ cm/s. Also, the Papp B→A at 1 h in series [8] was determined as 2.9 ×10⁻⁶ cm/s. The figures for the microsomal CLint at 1 h in series [9] and in series [10] were 92.8 µL/min/mg and 79.8 µL/min/mg, respectively.
As for `COc1ccc(Cc2ccc(C3=N/C(=C\NC4CCCCC4)C4=C3OCCO4)[nH]2)cc1`, the IC50 worked out at 9.6 nM in series [1], 1550 nM in series [2], 6.08 nM in series [11] and 12.6 nM in series [12]. Also, the half-life in [3] and in [4] was above 60 min in each case. Besides, the Activity in series [5] was 5.01%; in series [13], 31.2%. For the same compound, in [6], the solubility came to 16.4 µM (≈ 6.88 µg/mL). Besides, in [7], the Papp A→B at 1 h came out at 0.002 ×10⁻⁶ cm/s. Further, the Papp B→A at 1 h in series [8] came to 0.051 ×10⁻⁶ cm/s. The microsomal CLint at 1 h in [9] amounted to 18.1 µL/min/mg; in series [10], 16.2 µL/min/mg.
As to `COc1ccc(Cc2ccc(C3=N/C(=C\NC4CCCCC4)C4=C3CCCC4)[nH]2)cc1`, the IC50 in series [1] came to 5.92 nM; in series [2], 2020 nM; in [11], 9.68 nM; in [12], 12.2 nM. In addition, the half-life in series [3] and in series [4] was above 60 min throughout. The Activity in [5] and in series [13] was 0% throughout. In [6], this compound registered a solubility of 25.5 µM (≈ 10.6 µg/mL). Besides, the microsomal CLint at 1 h came out at 11.2 µL/min/mg in series [9] and 9.87 µL/min/mg in series [10].
As to `CCC1=C(CC)/C(=C/NC2CCCCC2)N=C1c1ccc(-c2ccccc2)[nH]1`, the IC50 in series [1] came to 13.8 nM; in series [2], 4730 nM; in series [11] it was 24.8 nM; in series [12] it was 27.5 nM. For the same compound, the half-life in [3] and in [4] was above 60 min throughout. In series [5], the Activity came to 0%. Further, the solubility in [6] was below 3.125 µM. Moreover, the Papp A→B at 1 h in series [7] is 0.012 ×10⁻⁶ cm/s. The Papp B→A at 1 h in series [8] was found to be 0.003 ×10⁻⁶ cm/s. For the same compound, the microsomal CLint at 1 h in [9] is 15.9 µL/min/mg; in [10], 17.6 µL/min/mg.

Source of the values: ChEMBL document CHEMBL6178021, “Optimization of Tambjamines Active against Multiple Stages of Malaria Parasites” (J Med Chem, 2025).
